Experimental data: US20070049564A1 (Wyeth, priority 2005, published 2007)
Values after ≈ are worked out from the molar mass of the structure shown.

Columns and labels:
Test in all cases: MIC, broth microdilution
E. coli GC 2234 = conditions: Escherichia coli
E. coli GC 2235 = conditions: Escherichia coli
Protocol: (§1) Antimicrobial susceptibility testing. The in vitro activities of the antibiotics are determined by the broth microdilution method as recommended by the National Committee for Clinical Laboratory Standards (NCCLS) (1). Mueller-Hinton II broth (MHBII)(BBL Cockeysville, Md.) is the medium employed in the testing procedures. Microtiter plates containing serial dilutions of each antimicrobial agent are inoculated with each organism to yield the appropriate density (10^5 CFU/ml) in a 100 μl final volume. The plates are incubated for 18-22 hours at 35° C. in ambient air.
(§2) Representative compounds were first incubated in mouse serum for an hour prior to the in vitro testing against a panel of selected gram-positive and gram-negative bacteria strains. All compounds were also pre-incubated in water for an hour prior to testing as control. Representative compounds of Formula I were incubated in human serum prior to MIC determination.

S. epidermidis GC 4935 = conditions: Staphylococcus epidermidis
E. coli GC 2270 = conditions: Escherichia coli
E. faecalis GC 2242 = conditions: Enterococcus faecalis
Protocol: as §1, §2

c. albicans GC 3066 = tested on: c. albicans GC 3066
E. coli GC 2236 = conditions: Escherichia coli
S. pneumoniae+ GC 4465 = conditions: Streptococcus pneumoniae
S. aureus GC 2216 = conditions: Staphylococcus aureus
E. coli GC 2271 = conditions: Escherichia coli
S. aureus GC 1131 = conditions: Staphylococcus aureus
S. aureus GC 6335 = conditions: Staphylococcus aureus
E. coli GC 2233 = conditions: Escherichia coli
E. coli GC 1073 = conditions: Escherichia coli
Protocol: as §1, §2

P. aeruginosa GC 2214 = conditions: Pseudomonas aeruginosa
E. faecium GC 4556 = conditions: Enterococcus faecium
S. pyogenes GC 4563 = conditions: Streptococcus pyogenes
S. aureus GC 1079 = conditions: Staphylococcus aureus
E. coli GC 4559 = conditions: Escherichia coli

## CCCCC(=O)OCOC(=O)N(CC(=O)Nc1cc(N(C)C)c2c(c1O)C(=O)C1=C(O)[C@]3(O)C(=O)C(C(N)=O)=C(O)[C@@H](N(C)C)[C@@H]3C[C@@H]1C2)C(C)(C)C [Example 61, ({[(2-{[(5aR,6aS,7S,10aS)-9-(aminocarbonyl)-4,7-bis(dimethylamino)-1,8,10a,11-tetrahydroxy-10,12-dioxo-5,5a,6,6a,7,10,10a,12-octahydrotetracen-2-yl]amino}-2-oxoethyl)(tert-butyl)amino]carbonyl}oxy)methyl pentanoate]
E. coli GC 2234; GC2234, pre-incubation in human serum
  MIC: 8 µg/mL (≈ 10.8 µM)
E. coli GC 2234; GC2234, pre-incubation in mouse serum
  MIC: 0.5 µg/mL (≈ 0.672 µM)
E. coli GC 2234; GC2234, pre-incubation in water
  MIC: 16 µg/mL (≈ 21.5 µM)
E. coli GC 2235; GC2235, pre-incubation in human serum
  MIC: 4 µg/mL (≈ 5.38 µM)
E. coli GC 2235; GC2235, pre-incubation in mouse serum
  MIC: 0.5 µg/mL (≈ 0.672 µM)
E. coli GC 2235; GC2235, pre-incubation in water
  MIC: 16 µg/mL (≈ 21.5 µM)
S. epidermidis GC 4935; GC4935, pre-incubation in human serum
  MIC: 1 µg/mL (≈ 1.34 µM)
S. epidermidis GC 4935; GC4935, pre-incubation in mouse serum
  MIC: 0.5 µg/mL (≈ 0.672 µM)
S. epidermidis GC 4935; GC4935, pre-incubation in water
  MIC: 1 µg/mL (≈ 1.34 µM)
E. coli GC 2270; GC2270, pre-incubation in human serum
  MIC: 4 µg/mL (≈ 5.38 µM)
E. coli GC 2270; GC2270, pre-incubation in mouse serum
  MIC: 0.5 µg/mL (≈ 0.672 µM)
E. coli GC 2270; GC2270, pre-incubation in water
  MIC: 16 µg/mL (≈ 21.5 µM)
E. faecalis GC 2242; GC2242, pre-incubation in human serum
  MIC: 2 µg/mL (≈ 2.69 µM)
E. faecalis GC 2242; GC2242, pre-incubation in mouse serum
  MIC: 0.5 µg/mL (≈ 0.672 µM)
E. faecalis GC 2242; GC2242, pre-incubation in water
  MIC: 2 µg/mL (≈ 2.69 µM)
c. albicans GC 3066; Candida albicans, GC3066
  MIC: > 64 µg/mL
c. albicans GC 3066; pre-incubation in human serum
  MIC: >64 UG/ML
c. albicans GC 3066; pre-incubation in mouse serum
  MIC: >64 UG/ML
E. coli GC 2236; GC2236, pre-incubation in human serum
  MIC: 4 µg/mL (≈ 5.38 µM)
E. coli GC 2236; GC2236, pre-incubation in mouse serum
  MIC: 0.5 µg/mL (≈ 0.672 µM)
E. coli GC 2236; GC2236, pre-incubation in water
  MIC: 16 µg/mL (≈ 21.5 µM)
S. pneumoniae+ GC 4465; pre-incubation in human serum
  MIC: 0.5 µg/mL (≈ 0.672 µM)
S. pneumoniae+ GC 4465; pre-incubation in mouse serum
  MIC: 0.5 µg/mL (≈ 0.672 µM)
S. pneumoniae+ GC 4465; pre-incubation in water
  MIC: 0.5 µg/mL (≈ 0.672 µM)
S. aureus GC 2216; GC2216, pre-incubation in human serum
  MIC: 0.5 µg/mL (≈ 0.672 µM)
S. aureus GC 2216; GC2216, pre-incubation in mouse serum
  MIC: 0.5 µg/mL (≈ 0.672 µM)
S. aureus GC 2216; GC2216, pre-incubation in water
  MIC: 1 µg/mL (≈ 1.34 µM)
E. coli GC 2271; GC2271, pre-incubation in human serum
  MIC: 4 µg/mL (≈ 5.38 µM)
E. coli GC 2271; GC2271, pre-incubation in mouse serum
  MIC: 0.5 µg/mL (≈ 0.672 µM)
E. coli GC 2271; GC2271, pre-incubation in water
  MIC: 16 µg/mL (≈ 21.5 µM)
S. aureus GC 1131; GC1131, pre-incubation in human serum
  MIC: 0.5 µg/mL (≈ 0.672 µM)
S. aureus GC 1131; GC1131, pre-incubation in mouse serum
  MIC: 0.5 µg/mL (≈ 0.672 µM)
S. aureus GC 1131; GC1131, pre-incubation in water
  MIC: 0.5 µg/mL (≈ 0.672 µM)
S. aureus GC 6335; GC6335, pre-incubation in human serum
  MIC: 1 µg/mL (≈ 1.34 µM)
S. aureus GC 6335; GC6335, pre-incubation in mouse serum
  MIC: 0.5 µg/mL (≈ 0.672 µM)
S. aureus GC 6335; GC6335, pre-incubation in water
  MIC: 1 µg/mL (≈ 1.34 µM)
E. coli GC 2233; GC2233, pre-incubation in human serum
  MIC: 8 µg/mL (≈ 10.8 µM)
E. coli GC 2233; GC2233, pre-incubation in mouse serum
  MIC: 1 µg/mL (≈ 1.34 µM)
E. coli GC 2233; GC2233, pre-incubation in water
  MIC: 16 µg/mL (≈ 21.5 µM)
E. coli GC 1073; GC1073, pre-incubation in human serum
  MIC: 8 µg/mL (≈ 10.8 µM)
E. coli GC 1073; GC1073, pre-incubation in mouse serum
  MIC: 0.5 µg/mL (≈ 0.672 µM)
E. coli GC 1073; GC1073, pre-incubation in water
  MIC: 32 µg/mL (≈ 43 µM)
P. aeruginosa GC 2214; GC2214, pre-incubation in human serum
  MIC: > 64 µg/mL
P. aeruginosa GC 2214; GC2214, pre-incubation in mouse serum
  MIC: 8 µg/mL (≈ 10.8 µM)
P. aeruginosa GC 2214; GC2214, pre-incubation in water
  MIC: > 64 µg/mL
E. faecium GC 4556; GC4556, pre-incubation in human serum
  MIC: 2 µg/mL (≈ 2.69 µM)
E. faecium GC 4556; GC4556, pre-incubation in mouse serum
  MIC: 0.5 µg/mL (≈ 0.672 µM)
E. faecium GC 4556; GC4556, pre-incubation in water
  MIC: 2 µg/mL (≈ 2.69 µM)
S. pyogenes GC 4563; GC4563, pre-incubation in human serum
  MIC: 0.25 µg/mL (≈ 0.336 µM)
S. pyogenes GC 4563; GC4563, pre-incubation in mouse serum
  MIC: 0.25 µg/mL (≈ 0.336 µM)
S. pyogenes GC 4563; GC4563, pre-incubation in water
  MIC: 0.5 µg/mL (≈ 0.672 µM)
S. aureus GC 1079; GC1079, pre-incubation in human serum
  MIC: 0.5 µg/mL (≈ 0.672 µM)
S. aureus GC 1079; GC1079, pre-incubation in mouse serum
  MIC: 0.25 µg/mL (≈ 0.336 µM)
S. aureus GC 1079; GC1079, pre-incubation in water
  MIC: 1 µg/mL (≈ 1.34 µM)
E. coli GC 4559; GC4559, pre-incubation in human serum
  MIC: 8 µg/mL (≈ 10.8 µM)
E. coli GC 4559; GC4559, pre-incubation in mouse serum
  MIC: 1 µg/mL (≈ 1.34 µM)
E. coli GC 4559; GC4559, pre-incubation in water
  MIC: 64 µg/mL (≈ 86 µM)
